Data: patent US20110124614A1, “Methods And Compositions For The Treatment of Autoimmune Disorders” (priority 2008, published 2011)
“Also recorded” adds a separate entry of the source. Marks after values point to notes of the source that are not given here.

Assays:
Format in all cases: in vivo, mouse
EAE in wild-type B6 mice = assay: EAE clinical scoring, daily s.c. injection of G-1 or E2, wild-type B6 mice
EAE in GPR30KO mice = assay: EAE clinical scoring, G-1 or E2 pellets, GPR30KO mice (Example IV); settings: for CDI / Daily / Mortality / Onset / Peak / Incidence: GPR30KO
EAE in PD-1KO mice = assay: EAE clinical scoring, G-1 or E2 pellets, PD-1KO mice (Example IX); settings: for protection against clinical EAE (in words): PD-1KO mice; for CDI / Daily / Mortality / Onset / Peak / Incidence: PD-1KO
[1] = tested on: CNS infiltration, demyelination and axonal damage in spinal cord of WT EAE mice; assay: Spinal cord histology (H&E, LFB-PAS, SMI312, SMI32), WT EAE mice; settings: for immune cell infiltration and demyelination in the CNS (H&E, LFB-PAS): WT mice of FIG. 2A experiment, FIG. 4 upper panels; for axons in the spinal cords (SMI312 staining) / axonal damage in spinal cord sections / SMI32 staining in white matter of spinal cords (ongoing axonal damage): WT mice; for axons in the spinal cords (SMI312 staining): FIG. 4 lower left panel; for axonal damage in spinal cord sections: FIG. 4 lower panels; for SMI32 staining in white matter of spinal cords (ongoing axonal damage): FIG. 4 lower right panel
From the text: Spinal cords were dissected out for histology. Intact spinal columns were removed and dissected after fixation in 4% paraformaldehyde, dehydrated and embedding in paraffin. To examine neuroinflammation, the sections were stained with hematoxylin and eosin (H&E). To examine demyelination, the sections were stained with Luxon fast blue plus periodic acid Schiff (LFB-PAS). The mice from the clinical experiment shown in FIG. 2A were euthanized at the end of the experiment and spinal cords were dissected out for histology. Intact spinal cords were removed and dissected after fixation in 4% paraformaldehyde, dehydrated and embedding in paraffin. To examine neuroinflammation, the sections were stained with hematoxylin and eosin (H&E). To examine demyelination, the sections were stained with Luxon fast blue plus periodic acid Schiff (LFB-PAS). To visualize axonal damage, spinal cords were fixed in 4% paraformaldehyde (maass/volume in PBS, pH 7.4) at 4° C. for at least 48 h. The spinal cords were dissected out from the columns, cut into sections 1-2 mm in length from the sampled thoracic or […] cords, dehydrated and embedded in paraffin blocks. Then, 10 μm thick sections were cut from paraffin blocks and mounted onto pre-cleaned microscope slides. The sections were dewaxed and rehydrated sequentially by xylene (2 min), gradient ethanol (100%, 95%, 85%, 2 min each) and PBS (5 min) and then cooked (120° C.) in antigen unmasking agent Trilogy® (Cell Marque, Hot Springs, Ark.) for 10 min in a pressure steamer. […] The slides were counterstained with hematoxylin for 30-60 s to visualize nuclei, washed with tap water, dehydrated, and mounted with Cytoseal™ XYL mounting medium (Richard-Allan Scientific, Kalamazoo, Mich.). The sections were analyzed by light microscopy after staining and recorded with a digital camera.

[2] = tested on: splenocytes and lymph node cells of WT EAE mice; assay: Ex vivo T cell proliferation to mMOG-35-55, WT mice; settings: for ex vivo T cell proliferation responses to mMog-35-55 peptide: G-1 and E2 implanted WT mice, FIG. 2C
Procedure: (§1) Splenocytes and lymph node cells were harvested ex-vivo from G-1 and E2 implanted mice and cultured in a 96-well flat bottom tissue culture plate at 4×10^5 cells/well in stimulation medium in the presence of APC, irradiated (2500 rad) syngenic thymocytes at a ration of 1:10 (T:APCs) wither with or without mMog 35-55 peptide at varying concentrations. The cells were incubated for 3 days at 37° C. in 7% CO2 and pulsed with 0.5 μCi of [^3H] thymidine (Perkin-Elmer, Boston, Mass.) for the final 18 h of incubation. The cells were harvested onto glass fiber filters, and incorporated radioactivity was measured by a liquid scintillation counter. The cpm values (mean±SD) were calculated from triplicate wells. Stimulation index (SI) was calculated by dividing the experimental cpm by the control cpm.

[3] = tested on: T cells of GPR30KO EAE mice; assay: Ex vivo T cell proliferation to mMOG-35-55, GPR30KO mice; settings: for T cell proliferation to mMog-35-55: Example IV
Procedure: as §1

[4] = tested on: PD-1 expression in CD4^+FoxP3^+ T cells; assay: PD-1 expression in CD4+FoxP3+ Treg cells by flow cytometry, WT mice (Example VI); settings: for staining intensity of PD-1 in CD4^+FoxP3^+ cells: spleen of treated WT mice; for staining intensity of PD-1 in CD4^+FoxP3^+ cells / conversion of CD4^+FoxP3^+PD-1^− cells to PD-1^+ cells: FIG. 5B
Procedure: Splenocytes or lymph node cells were harvested from placebo-, E2- or G-1 treated mice after EAE induction as shown in FIG. 2A and stained for CD4, FoxP3 and PD-1. The expression levels of Pd-1 were analyzed by gating on CD4^+FoxP3^+ cells from placebo-, E2, or G-1 treated WT mice. For membrane staining, 1 million cells were stained at 4° C. in the dark with appropriate Ab dilutions in staining buffer (PBS containing 0.5% BSA and 0.02% sodium azide), Intracellular staining for FoxP3 was performed following the protocol recommended by eBioscience. Briefly, 4 million cells were surface stained following standard procedures. After washing, the cells were fixed overnight and washed twice with 0.5 ml of permeabilization buffer. The cells were co-stained for 15 min with FcBlock (Becton Dickinson, Franklin Lake., NJ) and IgG PerCp (eBioscience, San Diego, Calif.) followed 30 min later with fluorescent-labeled antibodies to FoxP3 (eBioscience, San Diego, Calif.) or isotype control. The cells were then washed twice with 2 ml of permeabilization buffer and once with 1 ml of staining buffer, and re-suspended in staining buffer. Flow cytometry data were collected on LSRII and FACSCalibur flow cytometers (BD Bioscience, Franklin Lakes, N.J.), and analyzed using FlowJo software (Tree Star, Ashland, Oreg.). Data represent 50,000-100,000 events unless otherwise noted. […] The histogram overlay compares the MFI of PD-1 in CD4^+FoxP3^+ T cells from different treatment groups. The bar charts show the average percentages of PD-1^+ CD4^+FoxP3^+ T cells and the average MFI of PD-1 in CD4^+FoxP3^+ T cells from all mice in each grip[/*P<0.05 or **P<0.01 compared to placebo control.

[5] = tested on: PD-L1 and PD-L2 expression; assay: PD-L1 and PD-L2 expression on APCs and T cells by flow cytometry (Example VIII); settings: treated WT EAE mice, FIG. 5C
[6] = E2 injection, 1 μg/mouse/day s.c., 20 days
[7] = 2.5 mg/60 day E2 pellet, 29 days
[8] = 2.5 mg/60 day E2 pellet, 20 days
[9] = G-1 injection, 20 μg/mouse/day s.c., 20 days
[10] = 1.8 mg/40 day G-1 pellet, 29 days
[11] = 1.8 mg/40 day G-1 pellet, 20 days

`C[C@]12CC[C@@H]3c4ccc(O)cc4CC[C@H]3[C@@H]1CC[C@@H]2O` [E2, 17β estradiol] was tested, and the “protection against EAE (in words)” value (EAE in wild-type B6 mice; E2 1 μg/mouse/day s.c. injections) was “partially protective”, the CDI (EAE in wild-type B6 mice; [6]) was 10.5 ± 13.9 and the Daily (EAE in wild-type B6 mice; [6]) was 2.3 ± 0.3. For the same compound, the Incidence (EAE in wild-type B6 mice; [6]) was 3/8*, the Mortality (EAE in wild-type B6 mice; [6]) was 1/8 and the Onset (EAE in wild-type B6 mice; [6]) was 15.3 ± 1.5. For the same compound, the Peak (EAE in wild-type B6 mice; [6]) was 2.3 ± 2.9, the “protective effect against EAE (in words)” value (EAE in GPR30KO mice; E2 2.5 mg/60 day pellet, GPR30KO mice) was “only partially offset by the absence of GPR30” and the CDI (EAE in GPR30KO mice; [7]) was 17.2 ± 17.4. The Daily (EAE in GPR30KO mice; [7]) was 3.7 ± 1.3, the Mortality (EAE in GPR30KO mice; [7]) was 0/7 and the Onset (EAE in GPR30KO mice; [7]) was 18.0 ± 1.4. The Peak (EAE in GPR30KO mice; [7]) was 2.5 ± 2.3, the Incidence (EAE in GPR30KO mice; 2.5 mg/60 day release E2 pellet, 29 days) was 4/7 and the “protection against clinical EAE (in words)” value (EAE in PD-1KO mice; E2 2.5 mg/60 day pellet) was “retained partial efficacy”. The CDI (EAE in PD-1KO mice; [8]) was 16.4 ± 6.3, the Daily (EAE in PD-1KO mice; [8]) was 1.5 ± 0.6 and the Mortality (EAE in PD-1KO mice; [8]) was 0/5. The Onset (EAE in PD-1KO mice; [8]) was 16.4 ± 0.9, the Peak (EAE in PD-1KO mice; [8]) was 4.1 ± 0.8 and the Incidence (EAE in PD-1KO mice; 2.5 mg/60 day release E2 pellet, 20 days) was 5/5. For the same compound, the “pathological signs of EAE in CNS (immune cell infiltration and demyelination)” value ([1]; E2-treated WT mice, Example II, FIG. 1B) was “no pathological signs of EAE”, the “immune cell infiltration and demyelination in the CNS (H&E, LFB-PAS)” value [1] was “markedly ameliorated” and the “axons in the spinal cords (SMI312 staining)” value [1] was “well preserved”. For the same compound, the “axonal damage in spinal cord sections” value [1] was “reduced the level of axonal damage”, the “SMI32 staining in white matter of spinal cords (ongoing axonal damage)” value [1] was “much less SMI32 staining” and the “T-cell responses to MOG peptide” value ([2]; E2 treatment, WT mice, FIG. 1C) was “similarly reduced”. For the same compound, the “ex vivo T cell proliferation responses to mMog-35-55 peptide” value [2] was “neither G-1 nor E2 treatment significantly altered”, the “T-cell responses to MOG peptide” value ([3]; E2 treatment, FIG. 1C) was “similarly reduced” and the “T cell proliferation to mMog-35-55” value [3] was “Neither G-1 nor E2 affected”. For the same compound, the “staining intensity of PD-1 in CD4^+FoxP3^+ cells” value [4] was “strongly enhanced”, the “conversion of CD4^+FoxP3^+PD-1^− cells to PD-1^+ cells” value ([4]; treated WT mice) was “converted a majority” and the “PD-L1 expression on B cells and macrophages” value [5] was “upregulated”. The “expression of PD-L2” value [5] was “essentially no effect”.
`CC(=O)c1ccc2c(c1)C1C=CCC1C(c1cc3c(cc1Br)OCO3)N2` (stereo not drawn) [G-1] was tested, and the “protection against EAE (in words)” value (EAE in wild-type B6 mice; G-1 20 μg/mouse/day s.c. injections) was “partially protective”, the CDI (EAE in wild-type B6 mice; [9]) was 19.7 ± 11.3 and the Daily (EAE in wild-type B6 mice; [9]) was 2.7 ± 1.3. For the same compound, the Mortality (EAE in wild-type B6 mice; [9]) was 1/8, the Onset (EAE in wild-type B6 mice; [9]) was 13.7 ± 1.3 and the Peak (EAE in wild-type B6 mice; [9]) was 3.7 ± 1.6. The Incidence (EAE in wild-type B6 mice; G-1 injection, 20 μg/mouse/day s.c., euthanized 20 days after immunization) was 6/8, the “protection against EAE (in words)” value (EAE in GPR30KO mice; G-1 1.8 mg/40 day pellet, GPR30KO mice) was “completely ineffective” and the CDI (EAE in GPR30KO mice; [10]) was 59.9 ± 13.4. The Daily (EAE in GPR30KO mice; [10]) was 3.0 ± 0.7, the Mortality (EAE in GPR30KO mice; [10]) was 0/8 and the Onset (EAE in GPR30KO mice; [10]) was 13.8 ± 1.2. For the same compound, the Peak (EAE in GPR30KO mice; [10]) was 4.5 ± 0.7, the Incidence (EAE in GPR30KO mice; 1.8 mg/40 day release G-1 pellet, concluded 29 days after immunization) was 8/8 and the “protection against clinical EAE (in words)” value (EAE in PD-1KO mice; G-1 1.8 mg/40 day pellet) was “failed to protect”. The CDI (EAE in PD-1KO mice; [11]) was 30.6 ± 9.1, the Daily (EAE in PD-1KO mice; [11]) was 2.7 ± 0.8 and the Mortality (EAE in PD-1KO mice; [11]) was 1/5. For the same compound, the Onset (EAE in PD-1KO mice; [11]) was 13.8 ± 1.3, the Peak (EAE in PD-1KO mice; [11]) was 4.8 ± 0.6 and the Incidence (EAE in PD-1KO mice; 1.8 mg/40 day release G-1 pellet, euthanized after 20 days) was 5/5. For the same compound, the “immune cell infiltration and demyelination in the CNS (H&E, LFB-PAS)” value [1] was “markedly ameliorated; also recorded: reduced”, the “axons in the spinal cords (SMI312 staining)” value [1] was “well preserved” and the “axonal damage in spinal cord sections” value [1] was “reduced the level of axonal damage”. For the same compound, the “SMI32 staining in white matter of spinal cords (ongoing axonal damage)” value [1] was “much less SMI32 staining”, the “ex vivo T cell proliferation responses to mMog-35-55 peptide” value [2] was “neither G-1 nor E2 treatment significantly altered” and the “T cell proliferation to mMog-35-55” value [3] was “Neither G-1 nor E2 affected”. The “staining intensity of PD-1 in CD4^+FoxP3^+ cells” value [4] was “strongly enhanced”, the “boosting PD-1 expression in CD4^+FoxP3^+ cells, compared with E2” value ([4]; treated WT mice) was “even more potent than E2” and the “conversion of CD4^+FoxP3^+PD-1^− cells to PD-1^+ cells” value ([4]; treated WT mice) was “converted a majority”. For the same compound, the “PD-L1 expression on B cells and macrophages” value [5] was “upregulated” and the “expression of PD-L2” value [5] was “essentially no effect”.
